Here are results for 21 compounds from ChEMBL document CHEMBL5131570, “Discovery of Potent Small-Molecule USP8 Inhibitors for the Treatment of Breast Cancer through Regulating ERα Expression” (J Med Chem, 2022).

The source made the active and inactive calls. The calls are words filed in the database; no cut-off is given here.

Chain of NAD(P)H dehydrogenase [quinone] 1 (Homo sapiens) (P15559 whole entry): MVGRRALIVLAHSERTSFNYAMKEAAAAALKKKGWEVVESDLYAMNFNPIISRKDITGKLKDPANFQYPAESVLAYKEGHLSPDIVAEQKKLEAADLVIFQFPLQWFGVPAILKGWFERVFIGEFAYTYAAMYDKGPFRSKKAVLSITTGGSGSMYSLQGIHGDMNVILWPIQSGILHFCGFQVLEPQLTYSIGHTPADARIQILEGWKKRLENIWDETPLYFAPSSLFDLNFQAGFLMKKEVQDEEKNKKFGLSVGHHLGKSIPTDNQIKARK

One assay has as its system MCF7. Kind of assay: Antiproliferative activity against human MCF7 cells assessed as reduction in colony formation at 3 uM incubated for 7 days by crystal violet staining based colony formation assay. The class given is functional, cell-based. As to conditions: time 7.0 day.
For `CCO/N=C1/c2ccccc2-c2nc(C#N)c(C#N)nc21`, the outcome was Active.

Another assay concerns the target T1, Ubiquitin carboxyl-terminal hydrolase 8 (Homo sapiens, UniProt P40818).
T1 sequence (P40818 whole entry): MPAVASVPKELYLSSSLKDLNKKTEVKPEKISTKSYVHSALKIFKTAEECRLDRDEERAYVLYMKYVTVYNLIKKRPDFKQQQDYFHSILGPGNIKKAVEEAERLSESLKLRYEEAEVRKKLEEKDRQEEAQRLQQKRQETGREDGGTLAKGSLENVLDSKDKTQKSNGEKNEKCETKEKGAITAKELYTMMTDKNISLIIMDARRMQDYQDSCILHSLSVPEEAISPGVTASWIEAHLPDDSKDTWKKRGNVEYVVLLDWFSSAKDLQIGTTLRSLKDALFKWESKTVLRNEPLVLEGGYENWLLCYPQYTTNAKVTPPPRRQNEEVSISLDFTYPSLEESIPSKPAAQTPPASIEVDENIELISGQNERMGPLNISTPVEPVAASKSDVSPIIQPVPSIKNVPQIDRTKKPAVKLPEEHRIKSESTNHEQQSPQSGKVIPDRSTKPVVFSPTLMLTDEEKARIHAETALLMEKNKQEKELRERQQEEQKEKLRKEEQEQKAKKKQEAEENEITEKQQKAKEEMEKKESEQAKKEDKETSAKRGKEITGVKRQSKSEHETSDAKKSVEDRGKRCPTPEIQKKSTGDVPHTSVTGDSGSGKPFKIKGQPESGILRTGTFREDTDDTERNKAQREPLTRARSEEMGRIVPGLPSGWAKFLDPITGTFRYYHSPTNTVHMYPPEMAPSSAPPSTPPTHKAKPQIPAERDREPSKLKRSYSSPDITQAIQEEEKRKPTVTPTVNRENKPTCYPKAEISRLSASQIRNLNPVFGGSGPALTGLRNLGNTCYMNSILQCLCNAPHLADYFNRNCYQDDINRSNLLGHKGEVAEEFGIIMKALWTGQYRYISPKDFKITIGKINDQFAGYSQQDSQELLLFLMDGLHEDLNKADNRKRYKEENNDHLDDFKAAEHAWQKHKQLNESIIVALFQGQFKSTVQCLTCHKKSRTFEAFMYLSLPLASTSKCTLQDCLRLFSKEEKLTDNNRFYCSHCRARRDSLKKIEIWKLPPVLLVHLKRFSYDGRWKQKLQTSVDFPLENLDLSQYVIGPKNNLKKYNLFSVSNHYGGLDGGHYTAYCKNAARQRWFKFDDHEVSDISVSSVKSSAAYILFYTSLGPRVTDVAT
Kind of assay: Inhibition of N-terminal His6-tagged USP8 (unknown origin) catalytic domain (734 to 1110 residues) expressed in Escherichia coli BL21 (DE3) cells assessed as deubiquitinating activity using ubiquitin-rhodamine -110 as substrate incubated for 30 mins followed by substrate addition measured after 30 mins by ubiquitin-rhodamine-110 based fluorometric assay.
Details: not given
Usually IC50 stands for the midpoint of a concentration-inhibition curve. Take `O=c1cc(-c2ccc(N3CCCNCC3)cc2)oc2c(OC3CCCCC3)c(O)cc(O)c12`: the IC50 amounted to 16.2 µM. On the same count and under the same terms, to `COc1c(O)cc(O)c2c(=O)cc(-c3ccc(N4CCN(C=O)CC4)cc3)oc12` belongs 2.2 µM. With `Cc1n[nH]c(C)c1Oc1c(O)cc(O)c2c(=O)cc(-c3ccc(N4CCN(C(=O)c5ccco5)CC4)cc3)oc12`, the IC50 worked out at 5.1 µM. Same read-out and setting: to `COc1c(O)cc(O)c2c(=O)cc(-c3ccc(N4CCOCC4)cc3)oc12` belongs 18.3 µM. The same measure, in the same setting: to `COc1c(O)cc(O)c2c(=O)cc(-c3ccc(N(CCO)CCO)cc3)oc12` belongs 43.7 µM.

For `Cc1n[nH]c(C)c1Oc1c(O)cc(O)c2c(=O)cc(-c3ccc(N4CCN(c5ccccc5)CC4)cc3)oc12`, the IC50 is 3.5 µM. On the same count and under the same terms, the value for `Cc1n[nH]c(C)c1Oc1c(O)cc(O)c2c(=O)cc(-c3ccc(N4CCCNCC4)cc3)oc12` was 17.6 µM; that for `Cc1n[nH]c(C)c1Oc1c(O)cc(O)c2c(=O)cc(-c3ccc(N4CCN(CCO)CC4)cc3)oc12` was 23.5 µM; that for `COc1c(O)cc(O)c2c(=O)cc(-c3ccc(N4CCN(C)CC4)cc3)oc12` was 16.5 µM. Same read-out and setting: the value for `COc1c(O)cc(O)c2c(=O)cc(-c3ccc(N4CCC(O)CC4)cc3)oc12` was 36 µM; that for `COc1c(O)cc(O)c2c(=O)cc(-c3ccc(N4CCCC4)cc3)oc12` was 16.2 µM. Turning to `CC(C)Oc1c(O)cc(O)c2c(=O)cc(-c3ccc(N4CCCNCC4)cc3)oc12`, the IC50 worked out at 24.5 µM.

In the case of `COc1c(O)cc(O)c2c(=O)cc(-c3ccc(N4CCN(CCO)CC4)cc3)oc12`, the IC50 stood at 45.2 µM. For the compound `Cc1n[nH]c(C)c1Oc1c(O)cc(O)c2c(=O)cc(-c3ccc(N4CCN(C(C)C)CC4)cc3)oc12`, the IC50 is 16.3 µM.

For `CCN1CCN(c2ccc(-c3cc(=O)c4c(O)cc(O)c(Oc5c(C)n[nH]c5C)c4o3)cc2)CC1`, the IC50 came out at 15.5 µM. The same measure, in the same setting: to `COc1c(O)cc(O)c2c(=O)cc(-c3ccc(N4CCCNCC4)cc3)oc12` belongs 31.6 µM.

A further assay deals with T1, Ubiquitin carboxyl-terminal hydrolase 8. Kind of assay: Inhibition of N-terminal His6-tagged USP8 (unknown origin) expressed in Escherichia coli BL21 (DE3) cells using ubiquitin-rhodamine -110 as substrate incubated for 15 mins followed by substrate addition measured after 1 hrs by ubiquitin-rhodamine-110 based fluorometric assay.
Details: not given
Consider `COc1ccc(N2CCN(C(=S)Nc3ccc([N+](=O)[O-])cc3)CC2)c(N)c1`, for which it took 2.6 µM to reach half-maximal inhibition (IC50).

A further assay addresses NAD(P)H dehydrogenase [quinone] 1 (Homo sapiens) (UniProt P15559). Kind of assay: Substrate activity at NQO1 (unknown origin) assessed as reduction in NADPH level measured per umol of NQO1 at 20 uM in presence of NADPH by absorbance based analysis.
Details: not given
For the compound `CCO/N=C1/c2ccccc2-c2nc(C#N)c(C#N)nc21`, the Activity amounted to 1300 µmol/min.

A further assay deals with T1, Ubiquitin carboxyl-terminal hydrolase 8. Kind of assay: Binding affinity to N-terminal His6-tagged USP8 catalytic domain (734 to 1110 residues) (unknown origin) expressed in Escherichia coli BL21 (DE3) cells by surface plasmon resonance method.
Details: not given
For orientation: SPR reads the build-up and loss of mass on a sensor chip optically.
For orientation: Kd means the free concentration of one partner at which half of the binding sites on the other are occupied at equilibrium, for simple one-to-one binding. High values mean lower affinity, low ones higher affinity. As to `COc1c(O)cc(O)c2c(=O)cc(-c3ccc(N4CCCNCC4)cc3)oc12`, the affinity, expressed as Kd, was 43.6 µM.

Another assay has the same target. The assay can be described thus: Inhibition of human full length USP8 overexpressed in baculovirus-infected insect cells using ubiquitin-C-terminal 7-amido-4-methylcoumarin as substrate by fluorescence spectroscopy.
Details: not given
With `N#Cc1nc2c(nc1C#N)-c1ccccc1/C2=N\OCc1ccccc1`, 0.85 µM corresponded to half-maximal inhibition (IC50). On the same count and under the same terms, the value for `C=CCO/N=C1\c2ccccc2-c2nc(C#N)c(C#N)nc21` was 0.56 µM. Still for that read-out and setting: to `N#Cc1cc2c(cc1C#N)-c1ccccc1C2=O` belongs 0.29 µM.

For another assay, the target named is T2, Ubiquitin carboxyl-terminal hydrolase 7 (Homo sapiens, UniProt Q93009). The assay can be described thus: Inhibition of human full length USP7 overexpressed in baculovirus-infected insect cells using ubiquitin-C-terminal 7-amido-4-methylcoumarin as substrate by fluorescence spectroscopy.
T2 sequence (Q93009 whole entry): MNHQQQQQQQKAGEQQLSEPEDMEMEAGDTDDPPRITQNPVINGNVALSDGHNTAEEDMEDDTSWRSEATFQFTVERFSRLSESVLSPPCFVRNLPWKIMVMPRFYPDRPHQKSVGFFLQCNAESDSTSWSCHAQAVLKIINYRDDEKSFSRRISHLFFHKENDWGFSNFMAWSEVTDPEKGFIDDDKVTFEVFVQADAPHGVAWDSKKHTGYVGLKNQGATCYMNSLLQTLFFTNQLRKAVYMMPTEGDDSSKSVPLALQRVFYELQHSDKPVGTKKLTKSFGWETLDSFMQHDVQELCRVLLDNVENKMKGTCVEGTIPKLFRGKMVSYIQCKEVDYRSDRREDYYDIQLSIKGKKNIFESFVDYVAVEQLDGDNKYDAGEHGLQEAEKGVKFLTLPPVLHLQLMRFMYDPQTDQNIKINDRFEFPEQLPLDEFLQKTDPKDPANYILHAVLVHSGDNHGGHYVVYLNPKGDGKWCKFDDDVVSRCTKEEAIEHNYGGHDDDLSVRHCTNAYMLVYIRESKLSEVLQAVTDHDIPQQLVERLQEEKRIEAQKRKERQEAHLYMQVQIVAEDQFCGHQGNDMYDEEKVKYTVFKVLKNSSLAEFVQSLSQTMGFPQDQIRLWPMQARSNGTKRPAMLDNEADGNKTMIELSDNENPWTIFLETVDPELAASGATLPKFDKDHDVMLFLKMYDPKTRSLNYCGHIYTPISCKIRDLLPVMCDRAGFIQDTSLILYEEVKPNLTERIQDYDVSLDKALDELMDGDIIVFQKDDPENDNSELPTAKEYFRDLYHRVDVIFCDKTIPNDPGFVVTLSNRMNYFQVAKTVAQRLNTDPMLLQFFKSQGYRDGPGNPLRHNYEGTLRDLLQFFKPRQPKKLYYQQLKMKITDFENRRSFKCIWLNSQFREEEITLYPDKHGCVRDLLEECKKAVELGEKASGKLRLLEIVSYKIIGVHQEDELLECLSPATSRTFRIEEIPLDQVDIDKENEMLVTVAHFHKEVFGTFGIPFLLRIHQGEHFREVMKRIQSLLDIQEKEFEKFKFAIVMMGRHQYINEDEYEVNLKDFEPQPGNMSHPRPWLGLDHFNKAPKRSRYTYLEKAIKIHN
Details: not given
In the case of `N#Cc1cc2c(cc1C#N)-c1ccccc1C2=O`, the IC50 was found to be 3.5 µM.

The target of the next assay is T2, Ubiquitin carboxyl-terminal hydrolase 7. Kind of assay: Inhibition of USP7 (unknown origin) […].
Details: not given
As for `COc1ccc(N2CCN(C(=S)Nc3ccc([N+](=O)[O-])cc3)CC2)c(N)c1`, the IC50 was 10.5 µM.
